Data: the supplement of paper PMC10307832

Assays:
Assay in all cases: relative viability (nuclei count vs DMSO), 5 days (fraction); higher = more cells survive
17-AAG + Crizotinib = compound: C=CCNC1=C2C[C@@H](C)C[C@H](OC)[C@H](O)[C@@H](C)/C=C(\C)[C@H](OC(N)=O)[C@@H](OC)/C=C\C=C(/C)C(=O)NC(=CC1=O)C2=O [17-AAG] + C[C@@H](Oc1cc(-c2cnn(C3CCNCC3)c2)cnc1N)c1c(Cl)ccc(F)c1Cl [Crizotinib] (partner 1 µM)
Summary of the method: (§1)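 Relative viability divides the nuclei count in treated wells by that in vehicle wells. Lung cancer cell lines were seeded in 1536-well plates, dosed by pin tool the next day, and fixed and stained after 5 days in one step with final 0.05% Triton X-100, 1% formaldehyde and 1 ug/ml Hoechst. Dosing was a single drug or a fixed anchor-drug dose plus five library-drug doses (not always all listed) in √10 steps, and values are medians of duplicate plates imaged at 4×.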

17-AAG + Phenformin = compound: C=CCNC1=C2C[C@@H](C)C[C@H](OC)[C@H](O)[C@@H](C)/C=C(\C)[C@H](OC(N)=O)[C@@H](OC)/C=C\C=C(/C)C(=O)NC(=CC1=O)C2=O [17-AAG] + N=C(N)NC(=N)NCCc1ccccc1 [Phenformin] (partner 250 µM)
Summary of the method: as §1

17-AAG + Navitoclax = compound: C=CCNC1=C2C[C@@H](C)C[C@H](OC)[C@H](O)[C@@H](C)/C=C(\C)[C@H](OC(N)=O)[C@@H](OC)/C=C\C=C(/C)C(=O)NC(=CC1=O)C2=O [17-AAG] + CC1(C)CCC(c2ccc(Cl)cc2)=C(CN2CCN(c3ccc(C(=O)NS(=O)(=O)c4ccc(N[C@H](CCN5CCOCC5)CSc5ccccc5)c(S(=O)(=O)C(F)(F)F)c4)cc3)CC2)C1 [Navitoclax] (partner 0.5 µM)
Summary of the method: as §1

17-AAG + Decitabine = compound: C=CCNC1=C2C[C@@H](C)C[C@H](OC)[C@H](O)[C@@H](C)/C=C(\C)[C@H](OC(N)=O)[C@@H](OC)/C=C\C=C(/C)C(=O)NC(=CC1=O)C2=O [17-AAG] + Nc1ncn([C@H]2C[C@H](O)[C@@H](CO)O2)c(=O)n1 [Decitabine] (partner 2 µM)
Summary of the method: as §1

| Cell Line | relative viability (17-AAG + Crizotinib; first compound 0.00128 µM) | relative viability (17-AAG + Crizotinib; first compound 0.004048 µM) | relative viability (17-AAG + Crizotinib; first compound 0.0128 µM) | relative viability (17-AAG + Crizotinib; first compound 0.04048 µM) | relative viability (17-AAG + Crizotinib; first compound 0.128 µM) | relative viability (17-AAG + Phenformin; first compound 0.00128 µM) | relative viability (17-AAG + Phenformin; first compound 0.004048 µM) | relative viability (17-AAG + Phenformin; first compound 0.0128 µM) | relative viability (17-AAG + Phenformin; first compound 0.04048 µM) | relative viability (17-AAG + Phenformin; first compound 0.128 µM) | relative viability (17-AAG + Navitoclax; first compound 0.00128 µM) | relative viability (17-AAG + Navitoclax; first compound 0.004048 µM) | relative viability (17-AAG + Navitoclax; first compound 0.0128 µM) | relative viability (17-AAG + Navitoclax; first compound 0.04048 µM) | relative viability (17-AAG + Navitoclax; first compound 0.128 µM) | relative viability (17-AAG + Decitabine; first compound 0.00128 µM) | relative viability (17-AAG + Decitabine; first compound 0.004048 µM) | relative viability (17-AAG + Decitabine; first compound 0.0128 µM) | relative viability (17-AAG + Decitabine; first compound 0.04048 µM) | relative viability (17-AAG + Decitabine; first compound 0.128 µM) |
| --- | --- | --- | --- | --- | --- | --- | --- | --- | --- | --- | --- | --- | --- | --- | --- | --- | --- | --- | --- | --- |
| NCI-H2023 | 0.627 | 0.575 | 0.128 | 0.0736 | 0.063 | 0.416 | 0.226 | 0.0687 | 0.0792 | 0.0691 | 0.989 | 0.867 | 0.641 | 0.11 | 0.112 | 0.178 | 0.168 | 0.0829 | 0.0643 | 0.0587 |
| NCI-H2085 | 0.913 | 0.71 | 0.971 | 0.924 | 0.637 | 0.688 | 0.734 | 0.68 | 0.595 | 0.406 | 1.08 | 1.11 | 1.18 | 1.11 | 0.808 | 0.498 | 0.512 | 0.588 | 0.57 | 0.495 |
| NCI-H2087 | 0.861 | 0.66 | 0.321 | 0.213 | 0.148 | 0.394 | 0.232 | 0.138 | 0.125 | 0.105 | 0.96 | 0.754 | 0.284 | 0.202 | 0.195 | 0.248 | 0.193 | 0.104 | 0.113 | 0.114 |
| NCI-H2126 | 1.08 | 1.02 | 1.01 | 0.951 | 0.43 | 0.576 | 0.563 | 0.305 | 0.289 | 0.271 | 0.864 | 0.845 | 0.878 | 0.796 | 0.381 | 0.556 | 0.631 | 0.616 | 0.622 | 0.456 |
| NCI-H2170 | 1.29 | 1.19 | 0.959 | 0.588 | 0.203 | 0.408 | 0.453 | 0.297 | 0.163 | 0.135 | 0.649 | 0.578 | 0.548 | 0.251 | 0.167 | 0.375 | 0.47 | 0.291 | 0.336 | 0.152 |
| NCI-H2347 | 0.747 | 0.791 | 0.738 | 0.486 | 0.317 | 0.466 | 0.38 | 0.275 | 0.187 | 0.191 | 0.908 | 0.737 | 0.74 | 0.441 | 0.245 | 0.659 | 0.631 | 0.558 | 0.453 | 0.386 |
| NCI-H2405 | 0.868 | 0.837 | 0.922 | 0.303 | 0.163 | 0.398 | 0.383 | 0.33 | 0.209 | 0.185 | 0.98 | 0.71 | 0.231 | 0.271 | 0.165 | 0.714 | 0.675 | 0.424 | 0.242 | 0.189 |
| NCI-H3122 | 0.285 | 0.258 | 0.233 | 0.246 | 0.173 | 0.396 | 0.329 | 0.129 | 0.118 | 0.117 | 1.02 | 1.02 | 0.949 | 0.194 | 0.159 | 0.487 | 0.413 | 0.426 | 0.235 | 0.118 |
| PC-3 [JPC-3] | 0.956 | 0.99 | 0.833 |  | 0.91 | 0.481 | 0.472 | 0.485 |  | 0.468 | 0.794 | 0.82 | 0.835 |  | 0.793 | 0.829 | 0.816 | 0.911 | 0.451 | 0.658 |
| PC-14 | 0.944 | 0.855 | 0.732 | 0.176 | 0.124 | 0.449 | 0.44 | 0.126 | 0.123 | 0.109 | 1.04 | 1.02 | 1.02 | 0.118 | 0.0935 | 0.183 | 0.199 | 0.097 | 0.103 | 0.0891 |
| RERF-LC-KJ | 0.894 | 0.831 | 0.901 | 0.616 | 0.232 | 0.535 | 0.489 | 0.321 | 0.268 | 0.27 | 1.09 | 0.747 | 0.712 | 0.254 | 0.234 | 0.66 | 0.447 | 0.225 | 0.27 | 0.202 |
| SK-LU-1 | 0.888 | 0.435 | 0.242 | 0.232 | 0.176 | 0.484 | 0.214 | 0.119 | 0.116 | 0.0908 | 0.818 | 0.164 | 0.135 | 0.152 | 0.136 | 0.582 | 0.599 | 0.402 | 0.24 | 0.223 |
| SK-MES-1 | 1.02 | 1.01 | 0.822 | 0.224 | 0.144 | 0.697 | 0.561 | 0.389 | 0.202 | 0.194 | 1.17 | 1.12 | 0.951 | 0.162 | 0.131 | 0.405 | 0.362 | 0.197 | 0.145 | 0.141 |
| SW 1573 | 0.764 | 0.872 | 0.687 | 0.167 | 0.106 | 0.34 | 0.257 | 0.123 | 0.145 | 0.1 | 0.704 | 0.955 | 0.74 | 0.142 | 0.0734 | 0.336 | 0.284 | 0.159 | 0.113 | 0.0972 |
| UMC-11 | 0.717 | 0.58 | 0.399 | 0.148 | 0.0804 | 0.297 | 0.292 | 0.249 | 0.223 | 0.19 | 0.363 | 0.37 | 0.304 | 0.17 | 0.138 | 0.484 | 0.658 | 0.536 | 0.523 | 0.255 |
